Tests used:
[1] = system: plasma FABP2; experiment: Serial plasma FABP2 (ELISA) in children after cardiopulmonary bypass for CHD, by treatment factor; conditions: children after CPB; for Association of infusion with elevation in plasma FABP2 over time: vasoactive infusions, any dose, p<0.01
Method: (§1) Inclusion criteria were age greater than 37 weeks corrected gestational age and a diagnosis of CHD requiring surgical repair or palliation with the use of CPB. Exclusion criteria were known pre-existing gastrointestinal dysfunction, immune dysfunction, active intracranial bleeding, and anuric renal failure. All operations were performed by two surgeons. CPB and anesthetic regimens were per usual care.
Blood samples for measurement of plasma FABP2, claudin 3, and citrulline were collected from indwelling intravascular catheters pre-operatively after induction of general anesthesia, but prior to CPB, and at 6, 12, 24, 48, and ≧120 hours post-operatively. Final samples at ≧120 hours were collected between 120 and 168 hours post-operatively to evaluate the return to baseline values. Control samples were obtained intra-operatively from the CPB circuits prior to connection to the patient. […]
Clinical data included candidate factors likely to alter intestinal barrier function. […] Vasoactive-inotrope score (VIS) was determined at time of sample collection and was previously validated (see, e.g., Gaies, et al., Pediatric critical care medicine: a journal of the Society of Critical Care Medicine and the World Federation of Pediatric Intensive and Critical Care Societies 2010; 11:234-8).
Plasma concentrations of human FABP2 were evaluated by ELISA according to the manufacturer's protocol (Standards range: 10 000 pg/ml to 156.25 pg/ml) (R&D Systems, Minneapolis, Minn.). Claudin 3 concentration was evaluated by ELISA in plasma from patients according to manufacturer's instruction (standard range from 20 ng/ml to 0.312 ng/ml) (Uscn life science Inc, Wuhan, China).
Data were analyzed using STATA SE/11 software. […] As citrulline values were normally distributed, the effect of binary variables on citrulline were evaluated with a Student's t-test. […] The effect continuous and categorical variables over time on repeated log-transformed plasma FABP2, log-transformed claudin 3, and citrulline was evaluated with multi-level mixed-effects linear regression. […]

[2] = system: intestinal barrier function; experiment: Intestinal barrier function biomarker panel (plasma FABP2, claudin 3, citrulline) in children after cardiopulmonary bypass; conditions: for Association with changes in post-operative FABP2, claudin3, or citrulline: caudal or spinal, post-operative pain management, p>0.05
Method: A panel of plasma biomarkers was used to reflect intestinal epithelial cellular and paracellular structure (FABP2 and claudin 3), as well as cellular and paracellular function (citrulline and DSPT). In particular, twenty children aged newborn to 18 years undergoing repair or palliation of congenital heart disease with CPB were examined. Plasma FABP2, claudin 3, and citrulline were measured after induction of general anesthesia, and at 6, 12, 24, 48, and 120 hours post-operatively.
as §1
Blood samples for measurement of plasma FABP2, claudin 3, and citrulline were collected from indwelling intravascular catheters pre-operatively after induction of general anesthesia, but prior to CPB, and at 6, 12, 24, 48, and ≧120 hours post-operatively. […]
Plasma concentrations of human FABP2 were evaluated by ELISA according to the manufacturer's protocol (Standards range: 10 000 pg/ml to 156.25 pg/ml) (R&D Systems, Minneapolis, Minn.). Claudin 3 concentration was evaluated by ELISA in plasma from patients according to manufacturer's instruction (standard range from 20 ng/ml to 0.312 ng/ml) (Uscn life science Inc, Wuhan, China). […]
Samples were separated on Phenomenex Luna HILIC 200A SB-C18, 3 μm, 150×2.00 mm column (Torrance, Calif.) using Paradigm MS4B-multi-dimensional separations module (Michrom BioResources, Inc., Auburn, Calif.). […] Full injection loop (20 μl) was used to introduce 2 μl sample diluted with 18 μl of solvent B. AB SCIEX API 3000 triple-quadrupole mass spectrometer (Applied Biosystems, Foster City, Calif.) controlled by Analyst 1.5.1 in-line with the HPLC was used for citrulline detection and quantitative analysis.

| Compound | Association with elevated plasma FABP2 ([1]; p=0.03) | Association of infusion with elevation in plasma FABP2 over time [1] | Association with changes in post-operative FABP2, claudin3, or citrulline [2] | Risk for intestinal barrier dysfunction ([2]; children undergoing CPB, post-operative use to maintain mean arterial blood pressure) |
| --- | --- | --- | --- | --- |
| CNC[C@H](O)c1ccc(O)c(O)c1 [epinephrine] | associated with elevated plasma FABP2 | associated with |  |  |
| CN1CC[C@]23c4c5ccc(O)c4O[C@H]2[C@@H](O)C=C[C@H]3[C@H]1C5 [morphine] |  |  | not associated with changes |  |
| CCCCN1CCCCC1C(=O)Nc1c(C)cccc1C (stereo not drawn) [bupivicaine] |  |  | not associated with changes |  |
| NC(=O)CC[C@@H]1NC(=O)[C@H](Cc2ccccc2)NC(=O)[C@H](Cc2ccc(O)cc2)NC(=O)[C@@H](N)CSSC[C@@H](C(=O)N2CCC[C@H]2C(=O)N[C@@H](CCCN=C(N)N)C(=O)NCC(N)=O)NC(=O)[C@H](CC(N)=O)NC1=O [vasopressin] |  | associated with |  | increase the risk for intestinal barrier dysfunction |

— patent publication US20170053081A1, “METHODS AND MATERIALS FOR CHARACTERIZING INTESTINAL BARRIER FUNCTION” (THE ARIZONA BOARD OF REGENTS ON BEHALF OF THE UNIVERSITY OF …, priority 2014, published 2017)
